Each compound was assayed against Induced myeloid leukemia cell differentiation protein Mcl-1 (Homo sapiens) (UniProt Q07820) (assay: Mcl-1 Noxa peptide disruption concentration-response – biochemical, TR-FRET, dose response (AID 1417)). Settings: Mcl-1/Noxa peptide interaction, cell-free TR-FRET (terbium/rhodamine), 2 h; measured here: absolute IC50.
Sequence of Induced myeloid leukemia cell differentiation protein Mcl-1 (Homo sapiens) (Q07820 whole entry, looked up): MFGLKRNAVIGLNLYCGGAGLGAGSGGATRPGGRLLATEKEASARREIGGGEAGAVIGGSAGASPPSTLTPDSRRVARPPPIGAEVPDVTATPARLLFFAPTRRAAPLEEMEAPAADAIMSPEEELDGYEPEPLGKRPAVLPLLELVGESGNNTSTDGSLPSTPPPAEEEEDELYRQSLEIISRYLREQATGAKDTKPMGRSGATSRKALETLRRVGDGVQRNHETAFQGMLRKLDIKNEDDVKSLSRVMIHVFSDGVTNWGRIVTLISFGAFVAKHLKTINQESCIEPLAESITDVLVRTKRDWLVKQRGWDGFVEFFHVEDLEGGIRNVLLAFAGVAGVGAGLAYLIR
`Cc1ccc(-n2cccc2/C=C2\C(=N)N3N=C(c4ccco4)SC3=NC2=O)cc1` was tested, and the IC50 was 1.53 µM.
Work on `O=[N+]([O-])c1cc(S(=O)(=O)c2ccc(O)c([N+](=O)[O-])c2)ccc1O` yielded an IC50 of 0.846 µM.
For `C/C=C\C=C/C(=O)Nc1cccc(C2=NOC3(C2)C[C@@H](C(N)=O)N(C(=O)c2ccccc2)C3)c1` (some centres undefined), the IC50 was 50.9 µM.
Compound `Cc1cccc(/C=C/C(=O)c2ccc(NC3=NCCCS3)cc2)c1` has an IC50 of 4.9 µM.
`CC(C)Cn1c(N)c(C(=O)COC(=O)c2cc(-c3ccco3)nc3ccccc23)c(=O)n(C)c1=O` was tested, and the IC50 was 1.45 µM.
`COC/C=C/C1=CC2=CC(=O)C(C)(OC(=O)c3ccco3)C(=O)C2=CO1` (centres undefined) was tested, and the IC50 was 2.78 µM.
`Cc1ccc2c(c1)c1ccc3c(c1n2C)C(=O)C=CC3=O` gave an IC50 of under 0.4 µM.
`CCc1cc(C(=O)N=Nc2c(O)[nH]c3ccc([N+](=O)[O-])cc23)c2ccccc2n1` was tested, and the IC50 was 5.99 µM.
Work on `Cc1cc2nc(-c3ccc(SCC(=O)N4CCN(C(=O)c5ccco5)CC4)nc3)[nH]c2cc1C` yielded an IC50 of 4.16 µM.
Compound `Cc1c(C(=O)N/N=C/c2ccc(-c3ccccc3[N+](=O)[O-])o2)sc(N)c1C#N` has an IC50 of 1.69 µM.
Compound `O=C1N/C(=N/Nc2ccccc2)S/C1=C\c1ccccc1` has an IC50 of over 54 µM.
For `O=S(=O)(c1ccc2nc(-c3ccco3)c(-c3ccco3)nc2c1)N1CCOCC1`, the IC50 was 8.41 µM.
`N=C1/C(=C/c2ccc(-c3cccc(C(=O)O)c3)o2)C(=O)N=C2SC=C(c3ccccc3)N12` was tested, and the IC50 was under 0.4 µM.
With `O=C(CSc1nnc(-c2ccco2)c(-c2ccco2)n1)Nc1ccccc1` the IC50 was 2.92 µM.
In the case of `CCOc1ccccc1Nc1nc(-c2sc(NC(=O)c3ccc([N+](=O)[O-])cc3)nc2C)cs1`, the IC50 is reported as under 0.4 µM.
For `O=C1/C(=C/C=C/c2ccco2)SC(=S)N1c1ccc(O)cc1`, the IC50 was under 0.4 µM.
For `Cc1nnc(NC(=O)COc2ccc3c(C)cc(=O)oc3c2)s1`, the IC50 was 5.88 µM.
`O=[N+]([O-])c1cccc(N/N=C/c2cc([N+](=O)[O-])ccc2O)c1` gave an IC50 of 0.428 µM.
`O=C(COC(=O)c1cc(-c2ccco2)nc2ccccc12)NCc1ccc2c(c1)OCO2` gave an IC50 of 29.4 µM.
`O=C(CSc1ccsc1[N+](=O)[O-])Nc1cc(F)ccc1F` gave an IC50 of over 54 µM.
In the case of `Cc1cc(NC(=O)CSc2nc(-c3ccc(F)cc3)cs2)no1`, the IC50 is reported as over 54 µM.
Compound `COc1ccc(/C=C2\C(=O)N(c3c(Cl)cc(Cl)cc3Cl)N=C2NC(=O)c2cccc([N+](=O)[O-])c2)cc1` has an IC50 of 2.96 µM.
Compound `O=C1NC(=S)N(C2CC2)C(=O)/C1=C/c1ccc2c(c1)CCN2CCCCl` has an IC50 of 0.728 µM.
Work on `O=C(O)c1ccc(N/N=C/c2ccc(-c3cc(Cl)ccc3Cl)o2)cc1` yielded an IC50 of 1.84 µM.
`COc1ccc(N=C2S/C(=C\c3ccc(OC(C)C(=O)O)c(OC)c3)C(=O)N2CCc2c[nH]c3ccccc23)cc1` (centres undefined) was tested, and the IC50 was 7.31 µM.
Work on `COc1ccc(N2Cc3cccc(C(=O)N4CCN(C(=O)c5ccco5)CC4)c3C2=O)cc1` yielded an IC50 of 1.77 µM.
`Cc1ccc(-c2c3c([nH]c(=S)c2C#N)CCCC3)o1` showed an IC50 of 1.17 µM.
Work on `Cc1cccc2cc(/C=N/NC(=O)c3ccccc3O)c(Cl)nc12` yielded an IC50 of 6.09 µM.
Compound `COc1cc(/C=C(\C#N)c2nc3ccc(C)cc3[nH]2)cc([N+](=O)[O-])c1O` has an IC50 of 3.44 µM.
`CCN1C(=O)/C(=C2/Sc3ccc(OC)cc3N2C)SC1=Nc1cccc(O)c1` showed an IC50 of over 54 µM.
For `COc1ccc(CN2C(=O)/C(=C/c3ccc(-c4ccc(Cl)c(C(=O)O)c4)o3)SC2=S)cc1`, the IC50 was 1.56 µM.
`Cc1nc(NC(=O)c2ccccc2)sc1-c1csc(Nc2ccc(C(=O)O)cc2)n1` was tested, and the IC50 was 3.6 µM.
`CCNc1ccc(Br)cc(C(=O)/C=C/c2ccc(Cl)cc2Cl)c1=O` was tested, and the IC50 was 4.19 µM.
Work on `O=C(Nc1cccc(Cl)c1)Nc1nnc(-c2ccncc2)s1` yielded an IC50 of 4.03 µM.
`O=C(NCCc1ccccc1)c1ccc2nc(-c3ccco3)c(-c3ccco3)nc2c1` showed an IC50 of 2 µM.
Compound `CC(=O)c1ccc2c(c1)C1C=CCC1C(C(=O)O)N2` (centres undefined) has an IC50 of under 0.4 µM.
`C=C(C)C(=O)Nc1cccc(C2=NOC3(C2)C[C@@H](C(N)=O)N(C(=O)/C(C)=C/C)C3)c1` (some centres undefined) gave an IC50 of over 54 µM.
For `Cc1ccc2c(c1C)NC(C(=O)O)C1CC=CC21` (centres undefined), the IC50 was 1.07 µM.
`O=c1cc(-c2ccc([N+](=O)[O-])cc2)nc2cc(-c3ccc(Cl)cc3)[nH]n12` showed an IC50 of 1.63 µM.
`O=C(O)CCC(=O)NCCC1=c2ccccc2=N/C1=C\c1c(O)n(Cc2ccc(F)cc2)c(=S)[nH]c1=O` showed an IC50 of under 0.4 µM.
`Cc1ccc(/C=C2\C(=O)NC(=S)N(c3ccccc3F)C2=O)s1` was tested, and the IC50 was 1.86 µM.
`Cc1nc2c(c(=O)n1CCC1=CCCCC1)c1nc3ccccc3nc1n2/N=C/c1ccco1` gave an IC50 of 4.44 µM.
Work on `NC(=O)C1CCN(C2=C(Cl)C(=O)c3ccccc3C2=O)CC1` yielded an IC50 of 48.2 µM.
With `COc1ccc(-c2nn(CCC(=O)O)cc2/C=C2\SC(N)=NC2=O)cc1OC` the IC50 was 4.36 µM.
Compound `COCCN=c1scc(-c2ccco2)n1/N=C/c1ccc(O)c(O)c1O` has an IC50 of under 0.4 µM.
`O=C1/C(=C/c2ccco2)SC(=S)N1c1cccnc1` showed an IC50 of over 54 µM.
Compound `CCCSC1=N/C(=C\c2ccc([N+](=O)[O-])o2)C(=O)S1` has an IC50 of 3.01 µM.
Compound `COCCN1Cc2cccc(C(=O)Nc3cccc(C)c3C)c2C1=O` has an IC50 of over 54 µM.
For `O=C(NC1CC1)c1cc(-c2ccco2)nc2ccccc12`, the IC50 was under 0.4 µM.
In the case of `N#C/C(=C(/O)c1ccc(-c2cccc([N+](=O)[O-])c2)o1)c1nc2ccccc2s1`, the IC50 is reported as 5.71 µM.
Compound `O=[N+]([O-])c1ccccc1/C=C/C=N/n1c(-c2ccccc2)n[nH]c1=S` has an IC50 of over 54 µM.
`C/C(=N\Nc1ccc(C(=O)O)cc1)c1ccc2c(c1)Nc1ccccc1S2` gave an IC50 of under 0.4 µM.
Compound `O=C(COC(=O)c1ccc(NS(=O)(=O)c2cccs2)cc1)NCc1ccco1` has an IC50 of 2.41 µM.
`Fc1cc(F)c2nc(Nc3nc4cc5c(cc4s3)OCO5)sc2c1` was tested, and the IC50 was under 0.4 µM.
For `O=C(Nc1ccc(N2CCCC2)cc1)c1ccccc1F`, the IC50 was 6.9 µM.
For `O=C(O)c1ccc(-n2cccc2/C=N\NC(=O)c2cc3cc(Br)ccc3o2)cc1`, the IC50 was 0.915 µM.
For `CCCCCc1nc2c(=O)[nH]c3ccccc3c2o1`, the IC50 was over 54 µM.
For `NC(=O)c1nn(CC(=O)Nc2ccc3c(c2)OCO3)cc1[N+](=O)[O-]`, the IC50 was over 54 µM.
Work on `C=CCn1c(C)cc(C(=O)Cn2ncc(Cl)c(Cl)c2=O)c1C` yielded an IC50 of 3.07 µM.
`CN(CCC#N)C(=O)COC(=O)c1c2c(nc3ccccc13)/C(=C/c1ccco1)CC2` showed an IC50 of 1.63 µM.
`Nc1cc(C(=O)O)c(N)c2c1C(=O)c1ccccc1C2=O` gave an IC50 of under 0.4 µM.
For `CN1CCN(S(=O)(=O)c2ccc(NC(=S)NC(=O)c3ccc(Cl)cc3)cc2)CC1`, the IC50 was 3.59 µM.
In the case of `O=[N+]([O-])c1cc(CN2CCOCC2)c2cccnc2c1O`, the IC50 is reported as under 0.4 µM.
With `Oc1cc2c(cc1O)C1c3ccc(O)c(O)c3OCC1(O)C2` (centres undefined) the IC50 was under 0.4 µM.
For `C=C(C)C(=O)Nc1cccc(C2=NOC3(C2)C[C@H](C(N)=O)N(C(=O)/C=C/C)C3)c1` (some centres undefined), the IC50 was 2.94 µM.
`O=C(Nc1ccc(Nc2ccncc2)cc1)c1ccc(Nc2ccnc3ccc([N+](=O)[O-])cc23)cc1[N+](=O)[O-]` showed an IC50 of 3.11 µM.
`COc1cc(NS(=O)(=O)c2ccc(NC(=S)NC(=O)c3sc4cc(F)ccc4c3Cl)cc2)nc(OC)n1` showed an IC50 of over 54 µM.
For `COc1ccc(NC(=O)Cn2ncc(Cl)c(Cl)c2=O)cc1S(=O)(=O)N1CCOCC1`, the IC50 was 4.88 µM.
Work on `COc1ccc(OC)c(/C=N/c2oc(-c3ccco3)c(-c3ccco3)c2C#N)c1` yielded an IC50 of 9.72 µM.
In the case of `O=C1NN(c2ccccc2)C(=O)/C1=C\c1ccc(-c2cc([N+](=O)[O-])ccc2O)o1`, the IC50 is reported as 9.71 µM.
`O=C(Nc1ccc([N+](=O)[O-])cc1)Nc1ccc(N2CCOCC2)c2nonc12` showed an IC50 of 4.63 µM.
For `Cc1ccc(/C=c2\sc3nc(-c4ccco4)nn3c2=O)o1`, the IC50 was 6.14 µM.
`Cc1cc2ncn(/N=C/c3ccc([N+](=O)[O-])s3)c2cc1C` gave an IC50 of 5.32 µM.
`O=Cc1[nH]c2ccccc2c1N(C(=O)CCl)c1ccc([N+](=O)[O-])cc1` showed an IC50 of over 54 µM.

Reference: PubChem BioAssay AID1417 (Emory University Molecular Libraries Screening Center, 2008)
